“Also recorded” adds a separate entry of the source. Read-outs that look alike come from different tables or passages of the source.
Experiments:
[1] = system: N-acyl-L-proline acylase; assay: Stereospecificity of hydrolysis of N-acetyl-D,L-proline; assay type: biochemical, Comamonas testosteroni DSM 5416; settings: for L-proline (mmol/l) produced: substrate 10 mmol/l, two hours at 30° C., pH 7.0
Method: The hydrolysis of N-acyl-L-proline, N-acetyl-D,L-proline and N-acetyl-D-proline was determined in the following reaction mixture:
The reaction mixture was incubated for two hours at 30° C. and the L-proline produced was determined by amino acid analysis as in Example 10.

[2] = system: N-acyl-L-proline acylase; assay type: biochemical, Comamonas testosteroni DSM 5416; settings: native enzyme; for Activity (%): no agent = 100
Method: (§1) The enzymatic reaction was interrupted by pipetting 50 μl of the enzyme sample into 1.25 ml 100% acetic acid. Subsequently, 0.45 ml 0.1M tris-HCl buffer pH 7.0 and 1.25 ml ninhydrin reagent (3 g ninhydrin dissolved by heating in a mixture of 60 ml 100% acetic acid and 40 ml 6M phosphoric acid) were added. The ninhydrin reagent was freshly prepared daily. The test tubes were loosely closed with screw-on caps, incubated 30 minutes at 100° C. and subsequently cooled down in an ice bath.
(§2) The L-proline, liberated by the enzymatic hydrolysis, forms a red dye with ninhydrin at 100° C. The absorption of the red dye was measured in a spectrophotometer at 480 nm relative to a control batch without crude extract (=substrate blank). The concentration of the L-proline produced was determined using a straight calibration line with L-proline in a range of 5 to 100 nmoles per 50 μl specimen. The enzyme activity was indicated in international units; thus, one unit (U) corresponded to an amount of 1 μmole L-proline produced per minute.
The influence of various chemical agents as well as metal cations and anions on the reaction speed of the hydrolytic splitting of N-acetyl-L-proline was determined at 30° C. in a reaction batch with the following composition: […]
The enzyme was pre-incubated for 10 minutes at 30° C. with the compound before the addition of substrate to start the reaction.
The enzyme was pre-incubated for 10 minutes at 30° C. with the agent before the substrate was added to start the reaction.
The enzyme was pre-incubated 10 minutes at 30° C. with the agent before the substrate was added to start the reaction. The concentration of the anions was 10 mM in each instance.

[3] = system: 1,10-phenanthroline-inactivated acylase (apoenzyme); assay: Influence of cations on the 1,10-phenanthroline-inactivated acylase; assay type: biochemical, Comamonas testosteroni DSM 5416; settings: for Influence on the apoenzyme (in words): 1,10-phenanthroline-inactivated acylase; for Activity (%): inactivated enzyme after gel filtration + cation 1 mM, native enzyme = 100, no agent = 21
Method: FPLC/Mono Q purified enzyme was incubated for 24 hours at 4° C. in the presence of 1 mM 1,10-phenanthroline. Subsequently, enzyme and the chelating agent 1,10-phenanthroline were separated by gel filtration via Sephadex G-25M (PD-10, firm Pharmacia/LKB, Uppsala, Sweden). The enzyme-containing fractions were combined and the activity determined without and in the presence of various cations (1 mM).

[4] = system: N-acyl-L-proline acylase; assay: Substrate specificity: hydrolysis of N-acyl amino acids and proline derivatives; assay type: biochemical, Comamonas testosteroni DSM 5416; settings: for Relative Activity (%): proline derivatives
Method: The activity of acylase was determined with various N-acetyl-L-amino acids and N-chloroacetyl-L-amino acids in a reaction batch with the following composition:
The reaction temperature was 30° C. and the incubation time 15 minutes to 24 hours. 0.2 ml samples of the reaction batch in each instance were mixed at different times with 0.2 ml 10% (w/v) trichloroacetic acid and the denatured protein centrifuged off for 10 minutes at 11,000 rpms in a table centrifuge. The supernatant was diluted with a 0.1M Na citrate buffer pH 2.2 with 25% (v/v) 2.2-thiodiethanol and 0.1% (v/v) phenol 1:5 and 1:50 respectively. The amino acids released were quantitatively detected by an amino-acid analyzer LC 5001 of the firm Biotronic, Maintal, Federal Republic of Germany. In Table 16, the substrates marked with * and the corresponding products were quantified by means of HPLC.
The activity of the acylase was determined with various proline derivatives as under a).

[5] = system: N-acyl-L-proline acylase formation in Comamonas testosteroni DSM 5416; assay: Acylase formation: specific activity of N-acyl-L-proline acylase in crude extract; assay type: cell-based
Method: After 24 to 48 hours, the cell-containing nutrient medium was centrifuged (15 min., 4,500 g in a cooling centrifuge), the cells were washed twice with 0.9% (w/v) NaCl solution and resuspended in 10 ml 0.1M tris-HCl buffer, pH 7.0.
The microorganisms of this suspension were macerated by ultrasound treatment (Sonifier-Cell Disrupter B-30 of the firm Branson Sonic Power Co., Danbury, Conn., USA) (2 minutes pulsating, corresponding to 1 minute of pure ultrasonic radiation. The cell fragments and non-macerated cells were centrifuged in a cooled centrifuge 30 minutes at 40,000 g and 5° C. The clear supernatant (=crude extract) was used in an enzyme test.
The reaction was started by adding crude extract and the reaction batches customarily incubated for 10 minutes at 30° C. The incubation time and the amount of crude extract were selected so that the linearity range of the enzymatic reaction and of the subsequent proline detection were not exceeded.
as §1, §2
The protein determination was carried out with a protein-determination kit of the firm Pierce Chemical Co., Rockford, Ill., USA, according to Bradford, Anal. Biochem. 72, pp. 248-254 (1976).
(§3) The carbon source of the culture medium with a concentration of 4 g/l was varied and the influence on growth and acylase formation determined.
(§4) The concentration of N-acetyl-L-proline was varied in a range of 1 g/l-5 g/l in steps of 1 g/l in the culture medium as described in Example 1.
(§5) The concentration of (NH4)2 SO4 was varied in a range of 1 g/l-5 g/l in steps of 1 g/l in the culture medium as described in Example 1.
(§6) The concentration of yeast extract was varied in a range of 1 g/l-5 g/l in steps of 1 g/l in the culture medium as described in Example 1.
(§7) The N-acetyl-L-proline concentration was reduced to 0.2 to 1.0 g/l in the culture medium as described in Example 1 and 4 g/l Na acetate were additionally added.
(§8) The method described above under f) was followed. However, the inductor, N-acetyl-L-proline, was not added to the nutrient medium until the late exponential growth phase after an incubation time of 12 hours.
(§9) The method described above under f) was followed. In addition to N-acetyl-L-proline, various N-acetyl- and N-chloroacetyl amino acids were added to the nutrient medium in a concentration of 1 g/l.

[6] = system: N-acyl-L-proline acylase; assay: Dependence of the acylase activity on the substrate concentration (KM); assay type: biochemical, Comamonas testosteroni DSM 5416; settings: 30° C., 0.1M tris-HCl buffer, pH 7.0
Method: The reaction temperature was 30° C. and the incubation time 10 minutes. The N-acetyl-L-proline concentration of the reaction batch was varied in a range from 1 to 50 mM.

[7] = system: Comamonas testosteroni DSM 5416; assay: Growth of the strain in culture medium (OD600); assay type: cell-based
Method: Strains which appeared uniform according to the colony morphology and the microscopic image were then cultivated in 100 ml liquid medium (500 ml Erlenmeyer flask with top and 4 lateral baffles) at 30° C. on a rotary agitator machine at 200 rpms. The culture medium had the following composition: […]
as §3, §4, §5, §6, §7, §8, §9

[8] = 30° C., pH 7.0, N-acetyl-L-proline = 100%
[9] = N-acetyl-L-proline 0.2 g/l + 4 g/l Na acetate, 34 hours
[10] = N-acetyl-L-proline 0.2 g/l added after 12 hours (late exponential growth phase), Na acetate medium, 24 hours further
[11] = N-acetyl-L-proline 0.4 g/l + 4 g/l Na acetate, 34 hours
[12] = N-acetyl-L-proline 0.4 g/l added after 12 hours (late exponential growth phase), Na acetate medium, 24 hours further
[13] = N-acetyl-L-proline 0.6 g/l + 4 g/l Na acetate, 34 hours
[14] = N-acetyl-L-proline 0.6 g/l added after 12 hours (late exponential growth phase), Na acetate medium, 24 hours further
[15] = N-acetyl-L-proline 0.8 g/l + 4 g/l Na acetate, 34 hours
[16] = N-acetyl-L-proline 0.8 g/l added after 12 hours (late exponential growth phase), Na acetate medium, 24 hours further
[17] = N-acetyl-L-proline 1.0 g/l + 4 g/l Na acetate, 34 hours
[18] = N-acetyl-L-proline 1.0 g/l added after 12 hours (late exponential growth phase), Na acetate medium, 24 hours further
[19] = N-acetyl-L-proline 1 g/l in culture medium, 24 hours
[20] = N-acetyl-L-proline 2 g/l in culture medium, 24 hours
[21] = N-acetyl-L-proline 3 g/l in culture medium, 24 hours
[22] = N-acetyl-L-proline 4 g/l in culture medium, 24 hours
[23] = N-acetyl-L-proline 5 g/l in culture medium, 24 hours
[24] = carbon source 4 g/l in culture medium
[25] = inductor 1 g/l + 4 g/l Na acetate, 24 hours

CC(=O)N1CCCC1C(=O)O (racemic) [N-acetyl-D,L-proline]
L-proline (mmol/l) produced [1]: 4.82 mmol/L

O=S(=O)([O-])[O-].[Cu+2] [CuSO4]
Activity (%) ([2]; metal cation salt 1 mM): 61% | Activity (%) ([2]; metal cation salt 10 mM): 19% | Influence on the acylase activity (in words) [2]: inhibiting action | Influence on the apoenzyme (in words) [3]: inhibited | Activity (%) [3]: 6%

[Cl][Fe]([Cl])[Cl] [FeCl3]
Activity (%) ([2]; metal cation salt 1 mM): 83% | Activity (%) ([2]; metal cation salt 10 mM): 58% | Activity (%) [3]: 5%

O=S(=O)([O-])[O-].[Fe+2] [FeSO4]
Activity (%) ([2]; metal cation salt 1 mM): 20% | Activity (%) [3]: 12%

[Cl][Hg][Cl] [HgCl2]
Activity (%) ([2]; metal cation salt 1 mM): 67% | Activity (%) ([2]; metal cation salt 10 mM): 9% | Influence on the acylase activity (in words) [2]: inhibiting action | Influence on the apoenzyme (in words) [3]: inhibited | Activity (%) [3]: 6%

[Cl-].[Cl-].[Mg+2] [MgCl2]
Activity (%) ([2]; metal cation salt 1 mM): 106% | Activity (%) ([2]; metal cation salt 10 mM): 99% | Activity (%) [3]: 25%

[Cl][Mn][Cl] [MnCl2]
Activity (%) ([2]; metal cation salt 1 mM): 104% | Activity (%) ([2]; metal cation salt 10 mM): 103% | Activity (%) [3]: 23%

CC(=O)N1CCC[C@@H]1C(=O)O [N-acetyl-D-proline]
Hydrolysis by the acylase (in words) [4]: not hydrolized | Relative Activity (%) [4, 8]: 0% | Stereospecific hydrolysis (in words) [1]: not | L-proline (mmol/l) produced [1]: < 0.01 mmol/L

CC(=O)N1CCC[C@H]1C(=O)O [N-acetyl-L-proline]
Acylase formation / induction (in words) [5]: only formed; also recorded: induced acylase formation | Optimum concentration in the culture medium for acylase formation [5]: 4 g/L | Spec. activity (U/mg) [5, 9]: 0.53 U/mg | Spec. activity (U/mg) [5, 10]: 0.50 U/mg | Spec. activity (U/mg) [5, 11]: 0.79 U/mg | Spec. activity (U/mg) [5, 12]: 0.63 U/mg | Spec. activity (U/mg) [5, 13]: 1.41 U/mg | Spec. activity (U/mg) [5, 14]: 0.96 U/mg | Spec. activity (U/mg) [5, 15]: 1.70 U/mg | Spec. activity (U/mg) [5, 16]: 0.67 U/mg | Spec. activity (U/mg) [5, 17]: 1.55 U/mg | Spec. activity (U/mg) [5, 18]: 1.08 U/mg | Spec. activity (U/mg) [5, 19]: 1.33 U/mg | Spec. activity (U/mg) [5, 20]: 1.36 U/mg | Spec. activity (U/mg) [5, 21]: 1.77 U/mg | Spec. activity (U/mg) [5, 22]: 1.84 U/mg | Spec. activity (U/mg) [5, 23]: 0.94 U/mg | Spec. activity (U/mg) [5, 24]: 2.26 U/mg | Spec. activity (U/mg) [5, 25]: 1.34 U/mg | Km [6]: 5 mM | Growth (OD600) [7, 9]: 2.27 OD600 | Growth (OD600) [7, 10]: 2.22 OD600 | Growth (OD600) [7, 11]: 2.90 OD600 | Growth (OD600) [7, 12]: 2.28 OD600 | Growth (OD600) [7, 13]: 2.75 OD600 | Growth (OD600) [7, 14]: 2.76 OD600 | Growth (OD600) [7, 15]: 3.04 OD600 | Growth (OD600) [7, 16]: 2.95 OD600 | Growth (OD600) [7, 17]: 3.12 OD600 | Growth (OD600) [7, 18]: 2.88 OD600 | Growth (OD600) [7, 19]: 1.95 OD600 | Growth (OD600) [7, 20]: 3.16 OD600 | Growth (OD600) [7, 21]: 4.32 OD600 | Growth (OD600) [7, 22]: 5.42 OD600 | Growth (OD600) [7, 23]: 5.68 OD600 | Growth (OD600) [7, 24]: 6.0 OD600 | Growth (OD600) [7, 25]: 3.46 OD600 | Hydrolysis by the acylase (in words) [4]: hydrolyzed especially well | Rel. activity (%) ([4]; 20 mM substrate 1.0 ml in 2.0 ml batch, 30° C., pH 7.0, N-acetyl-L-proline = 100%, amino-acid analyzer): 100% | Hydrolysis by the acylase (in words) ([4]; listed as N-acetyl-L proline): hydrolyzes | Relative Activity (%) [4, 8]: 100% | Stereospecific hydrolysis (in words) [1]: hydrolyzes | L-proline (mmol/l) produced [1]: 10.25 mmol/L

O=[N+]([O-])[O-].O=[N+]([O-])[O-].[Ni+2] [Ni(NO3)2]
Activity (%) ([2]; metal cation salt 1 mM): 94% | Activity (%) ([2]; metal cation salt 10 mM): 75% | Activity (%) [3]: 21%

[Cl][Sn][Cl] [SnCl2]
Activity (%) ([2]; metal cation salt 1 mM): 72% | Activity (%) ([2]; metal cation salt 10 mM): 55% | Influence on the acylase activity (in words) [2]: inhibiting action | Influence on the apoenzyme (in words) [3]: inhibited | Activity (%) [3]: 10%

[Cl-].[Cl-].[Sr+2] [SrCl2]
Activity (%) ([2]; metal cation salt 1 mM): 104% | Activity (%) ([2]; metal cation salt 10 mM): 100% | Activity (%) [3]: 23%

O=S(=O)([O-])[O-].[Zn+2] [ZnSO4]
Activity (%) ([2]; metal cation salt 1 mM): 77% | Activity (%) ([2]; metal cation salt 10 mM): 32% | Influence on the acylase activity (in words) [2]: inhibiting action | Influence on the apoenzyme (in words) [3]: activating action | Activity (%) [3]: 54%

— patent publication US5219741A, “Method of making L-proline using an N-acyl-L-protine acylase” (priority 1990, dated 1993)
